In brackets after ≈: the same amount, converted by molar mass.
Assays:
DNA topoisomerase II = DNA topoisomerase II (Homo sapiens, UniProt P11388+Q02880); assay: Inhibitory activity against mammalian DNA topoisomerase II; assay type: protein assay
Enterobacter cloacae [1] = assay: Minimum inhibitory concentration against Enterobacter cloacae AE63; assay type: functional
Escherichia coli [2] = assay: Minimum inhibitory concentration against Escherichia coli DC0; assay type: functional
Escherichia coli [3] = assay: Minimum inhibitory concentration against Escherichia coli DC2; assay type: functional
Enterococcus faecium [4] = assay: Minimum inhibitory concentration against Enterococcus faecium (VR; Vancomycin resistant) EF12; MIC (ug/mL) No growth; assay type: functional, organism-based
Enterococcus faecium [5] = assay: Minimum inhibitory concentration against Enterococcus faecium (VS; Vancomycin sensitive) EF1; assay type: functional
Klebsiella pneumoniae [6] = assay: Minimum inhibitory concentration against Klebsiella pneumoniae (CR; Ciprofloxacin resistant) KL328; assay type: functional
Klebsiella pneumoniae [7] = assay: Minimum inhibitory concentration against Klebsiella pneumoniae KL21; assay type: functional
Moraxella catarrhalis = assay: Minimum inhibitory concentration against Moraxella catarrhalis MC2; assay type: functional
Pseudomonas aeruginosa = assay: Minimum inhibitory concentration against Pseudomonas aeruginosa PS96; assay type: functional
Proteus mirabilis = assay: Minimum inhibitory concentration against Proteus mirabilis PR91; assay type: functional
[8] = tested on: Staphylococcus epidermidis; assay: Minimum inhibitory concentration against Staphylococcus epidermidis (MSCR; Methicillin sensitive, ciprofloxacin resistant) SE48; assay type: functional
Streptococcus pyogenes = assay: Minimum inhibitory concentration against Streptococcus pyogenes STA2; assay type: functional
Staphylococcus aureus [9] = assay: Minimum inhibitory concentration against Staphylococcus aureus (MSCS; Methicillin sensitive, ciprofloxacin sensitive) MI273; assay type: functional
Streptococcus pneumoniae [10] = assay: Minimum inhibitory concentration against Streptococcus pneumoniae (PS; Penicillin sensitive) STP6301; assay type: functional
Staphylococcus aureus [11] = assay: Minimum inhibitory concentration against Staphylococcus aureus (MRCS; Methicillin resistant, ciprofloxacin sensitive) MI300; assay type: functional
Streptococcus pneumoniae [12] = assay: Minimum inhibitory concentration against Streptococcus pneumoniae PS; Penicillin sensitive) STP64; assay type: functional
Streptococcus viridans = assay: Minimum inhibitory concentration against Streptococcus viridans STV1; assay type: functional
Staphylococcus aureus [13] = assay: Minimum inhibitory concentration against Staphylococcus aureus (MSCR; Methicillin sensitive, ciprofloxacin resistant) MI345; assay type: functional
Staphylococcus aureus [14] = assay: Minimum inhibitory concentration against Staphylococcus aureus (MSCS; Methicillin sensitive, ciprofloxacin sensitive) MI246; assay type: functional
[15] = tested on: Staphylococcus saprophyticus; assay: Minimum inhibitory concentration against Staphylococcus saprophyticus SS276; assay type: functional
Escherichia coli [16] = assay: Minimum inhibitory concentration against Escherichia coli ES142; assay type: functional
[17] = biological target: DNA gyrase (Escherichia coli); assay: Inhibitory activity against wild type gyrase in Escherichia coli
[18] = biological target: DNA gyrase (Escherichia coli); assay: Inhibitory activity against quinolone resistant gyrase in Escherichia coli
Enterococcus faecalis [19] = assay: Minimum inhibitory concentration against Enterococcus faecalis STD44; MIC (ug/mL) No growth
Staphylococcus aureus [20] = assay: Minimum inhibitory concentration against Staphylococcus aureus (MRCR; Methicillin resistant, ciprofloxacin resistant) MI339
Enterococcus faecium [21] = assay: Minimum inhibitory concentration against Enterococcus faecium (VR; Vancomycin resistant) EF12; assay type: functional
Enterococcus faecalis [22] = assay: Minimum inhibitory concentration against Enterococcus faecalis STD44
Enterobacter cloacae [23] = assay: Minimum inhibitory concentration against Enterobacter cloacae AE63; MIC (ug/mL) No growth; assay type: functional, organism-based
Streptococcus pneumoniae [24] = assay: Minimum inhibitory concentration against Streptococcus pneumoniae (PR; Penicillin resistant) STP51; assay type: functional
Streptococcus pneumoniae [25] = assay: Minimum inhibitory concentration against Streptococcus pneumoniae (PS; Penicillin sensitive) STP6301; MIC (ug/mL) No growth; assay type: functional, organism-based

SMILES	IC50 (DNA topoisomerase II)	MIC (Enterobacter cloacae [1])	MIC (Escherichia coli [2])	MIC (Escherichia coli [3])	MIC (Enterococcus faecium [5])	MIC (Klebsiella pneumoniae [6])	MIC (Klebsiella pneumoniae [7])	MIC (Moraxella catarrhalis)	MIC (Pseudomonas aeruginosa)	MIC (Proteus mirabilis)	MIC [8]	MIC (Streptococcus pyogenes)	MIC (Staphylococcus aureus [9])	MIC (Staphylococcus aureus [11])	MIC (Streptococcus viridans)	MIC (Staphylococcus aureus [13])	MIC (Staphylococcus aureus [14])	MIC [15]	MIC (Escherichia coli [16])	MIC (Staphylococcus aureus [20])	other results
C[C@H]1COc2c(N3CCC[C@H](N)C3)ccc3c(=O)c(C(=O)O)cn1c23	> 500 µg/mL	0.25 µg/mL (≈ 0.728 µM)	16 µg/mL (≈ 46.6 µM)	2 µg/mL (≈ 5.82 µM)	> 32 µg/mL	> 32 µg/mL	0.25 µg/mL (≈ 0.728 µM)	2 µg/mL (≈ 5.82 µM)	> 32 µg/mL	2 µg/mL (≈ 5.82 µM)	> 32 µg/mL	> 32 µg/mL	4 µg/mL (≈ 11.6 µM)	2 µg/mL (≈ 5.82 µM)	> 32 µg/mL	> 32 µg/mL	2 µg/mL (≈ 5.82 µM)	16 µg/mL (≈ 46.6 µM)	1 µg/mL (≈ 2.91 µM)	> 32 µg/mL	MIC (Enterococcus faecium [4]): No growth; MIC (Streptococcus pneumoniae [10]): > 32 µg/mL; MIC (Streptococcus pneumoniae [12]): > 32 µg/mL; IC50 [17]: 63 µg/mL (≈ 183 µM); IC50 [18]: > 500 µg/mL; MIC (Enterococcus faecalis [19]): No growth
C[C@H]1COc2c(N3CCN(C)CC3)c(F)cc3c(=O)c(C(=O)O)cn1c23.C[C@H]1COc2c(N3CCN(C)CC3)c(F)cc3c(=O)c(C(=O)O)cn1c23.O [LEVOFLOXACIN]	–	0.008 µg/mL	0.25 µg/mL	0.25 µg/mL	0.25 µg/mL	4 µg/mL	< 0.004 µg/mL	0.03 µg/mL	0.5 µg/mL	0.06 µg/mL	2 µg/mL	0.5 µg/mL	0.12 µg/mL	0.12 µg/mL	0.25 µg/mL	2 µg/mL	0.12 µg/mL	0.12 µg/mL	–	2 µg/mL	MIC (Enterococcus faecium [21]): 1 µg/mL; MIC (Enterococcus faecalis [22]): 0.25 µg/mL
C[C@H]1COc2c(N3CCN(C)CC3)ccc3c(=O)c(C(=O)O)cn1c23	250 µg/mL (≈ 728 µM)	–	> 32 µg/mL	16 µg/mL (≈ 46.6 µM)	> 32 µg/mL	> 32 µg/mL	1 µg/mL (≈ 2.91 µM)	4 µg/mL (≈ 11.6 µM)	> 32 µg/mL	8 µg/mL (≈ 23.3 µM)	> 32 µg/mL	4 µg/mL (≈ 11.6 µM)	8 µg/mL (≈ 23.3 µM)	4 µg/mL (≈ 11.6 µM)	32 µg/mL (≈ 93.2 µM)	> 32 µg/mL	4 µg/mL (≈ 11.6 µM)	4 µg/mL (≈ 11.6 µM)	8 µg/mL (≈ 23.3 µM)	> 32 µg/mL	MIC (Enterobacter cloacae [23]): No growth; MIC (Enterococcus faecium [4]): No growth; MIC (Streptococcus pneumoniae [24]): 32 µg/mL (≈ 93.2 µM); MIC (Streptococcus pneumoniae [10]): 16 µg/mL (≈ 46.6 µM); MIC (Streptococcus pneumoniae [12]): 16 µg/mL (≈ 46.6 µM); IC50 [17]: 31 µg/mL (≈ 90.3 µM); IC50 [18]: > 500 µg/mL; MIC (Enterococcus faecalis [19]): No growth
C[C@H]1COc2c(N3CC[C@@H](C(C)(C)N)C3)ccc3c(=O)c(C(=O)O)cn1c23	150 µg/mL (≈ 404 µM)	0.25 µg/mL (≈ 0.673 µM)	4 µg/mL (≈ 10.8 µM)	0.125 µg/mL (≈ 0.337 µM)	1 µg/mL (≈ 2.69 µM)	> 8 µg/mL	0.031 µg/mL (≈ 0.0835 µM)	0.063 µg/mL (≈ 0.17 µM)	4 µg/mL (≈ 10.8 µM)	4 µg/mL (≈ 10.8 µM)	1 µg/mL (≈ 2.69 µM)	0.016 µg/mL (≈ 0.0431 µM)	0.125 µg/mL (≈ 0.337 µM)	0.063 µg/mL (≈ 0.17 µM)	1 µg/mL (≈ 2.69 µM)	2 µg/mL (≈ 5.38 µM)	0.063 µg/mL (≈ 0.17 µM)	0.031 µg/mL (≈ 0.0835 µM)	0.5 µg/mL (≈ 1.35 µM)	2 µg/mL (≈ 5.38 µM)	MIC (Enterococcus faecium [21]): 1 µg/mL (≈ 2.69 µM); MIC (Streptococcus pneumoniae [24]): 0.5 µg/mL (≈ 1.35 µM); MIC (Streptococcus pneumoniae [10]): 0.016 µg/mL (≈ 0.0431 µM); IC50 [17]: 3.2 µg/mL (≈ 8.62 µM); MIC (Enterococcus faecalis [22]): 0.125 µg/mL (≈ 0.337 µM); IC50 [18]: > 102 µg/mL
C[C@H](N)[C@@H]1CCN(c2ccc3c(=O)c(C(=O)O)cn4c3c2OC[C@@H]4C)C1	38 µg/mL (≈ 106 µM)	0.125 µg/mL (≈ 0.35 µM)	2 µg/mL (≈ 5.6 µM)	0.063 µg/mL (≈ 0.176 µM)	1 µg/mL (≈ 2.8 µM)	> 8 µg/mL	0.016 µg/mL (≈ 0.0448 µM)	0.125 µg/mL (≈ 0.35 µM)	1 µg/mL (≈ 2.8 µM)	2 µg/mL (≈ 5.6 µM)	1 µg/mL (≈ 2.8 µM)	0.016 µg/mL (≈ 0.0448 µM)	0.125 µg/mL (≈ 0.35 µM)	0.063 µg/mL (≈ 0.176 µM)	0.125 µg/mL (≈ 0.35 µM)	1 µg/mL (≈ 2.8 µM)	0.031 µg/mL (≈ 0.0867 µM)	0.125 µg/mL (≈ 0.35 µM)	0.5 µg/mL (≈ 1.4 µM)	2 µg/mL (≈ 5.6 µM)	MIC (Enterococcus faecium [21]): 1 µg/mL (≈ 2.8 µM); MIC (Streptococcus pneumoniae [24]): 0.063 µg/mL (≈ 0.176 µM); MIC (Streptococcus pneumoniae [25]): No growth; IC50 [17]: 6.4 µg/mL (≈ 17.9 µM); MIC (Enterococcus faecalis [22]): 0.031 µg/mL (≈ 0.0867 µM); IC50 [18]: 51.2 µg/mL (≈ 143 µM)
